Patent publication US9976183B2, “Biomarkers for cancers responsive to modulators of HEC1 activity” (TAIVEX THERAPEUTICS CORPORATION, priority 2011, dated 2018)

Test system: MEX-SA/Dx5
Experiment: Drug sensitivity, MTS assay, drug resistant cell line
Assay type: cell-based
Details: MEX-SA/Dx5, multi-drug resistant uterine sarcoma
Protocol: Drug sensitivity: Cell lines were screened for drug sensitivity by treatment with specified drugs 24 hours after seeding in appropriate seeding numbers into 96 well plates containing low glucose DME with 10% FBS. The drug was added to the plate in triplicate wells, and the cells are incubated in drug treated medium for 96 hours before cell viability was determined by MTS assay using CellTiter 96® Aqueous non-radioactive cell proliferation assay system (Promega, Madison, Wis. 53711 USA). The MTS assay was performed according to the manufacturer's instructions. Optical density was measured using a Bio-Tek 340 spectrophotometer (Bio-Tek, Winooski, Vt. 05404) and optical readings were then processed in Excel (Microsoft, Redmond, Wash. 98052-7329) and GraphPad Prism 5 linear regression software (GraphPad Software, La Jolla, Calif. 92037 USA) to determine concentration-response curves for calculating relative GI50s. […] The % growth inhibition of the test drug on cells were calculated as: [1−(Test Value)/(Control Value)]×100; these values were used to plot concentration-response curves, and then analyzed with linear regression software.

COc1ccc(Oc2cc(C)c(-c3csc(NC(=O)c4ccncc4)n3)c(C)c2)cc1 [compound 101001, N-(4-(4-(4-methoxyphenoxy)-2,6-dimethylphenyl)thiazol-2-yl)isonicotinamide]
GI50: 34.9 nM
